In US8372621B2, “Methods and materials for the production of shikimic acid” (priority 2003, dated 2013):
Changes are numbered by the printed parent chain. Names and notes keep the numbering of the source.

Key:
[1] = test system: E. coli native DAHP synthase AroF; settings: Ramilo & Evans 1997, cited from earlier work
[2] = test system: chimeric KDPGal aldolase (DgoA) variant NR8.165-2 (family shuffling of EC03-1, KP03-3 and ST04-5), GST fusion protein; experiment: DAHP formation kinetics, family-shuffled variant NR8.165-2 (Table 10); format: biochemical, chimera of E. coli, K. pneumoniae and S. typhimurium
Method: (§1) Enzyme activity is measured by following the formation of 3-dehydroshikimic acid (DHS) over time when DHQ synthase (3-dehydroquinate synthase, E.C. 4.2.3.4) and DHQ dehydratase (E.C. 4.2.1.10) are utilized as coupling enzymes. DHQ synthase is prepared as described in Frost, J. W. et al., Biochemistry, 1984, 23, 4470-75; DHQ dehydratase is purified from E. coli AB2848/pKD201 The reaction (1 mL) contains 50 mM morpholinepropanesulfonic acid (MOPS) buffer (pH 7.5), 1 mM D-erythrose 4-phosphate, 1 mM pyruvate, 50 μM CoCl2, 10 μM NAD, 1 U of DHQ synthase, 1 U of DHQ dehydratase and cellular lysate. The reaction is initiated by addition of diluted cellular lysate to the assay solution, and the absorbance at 234 nm monitored continuously for 5 min. One unit of evolved enzyme activity is defined by the formation of one μmol of DHS per minute.
(§2) The the dgoA mutants, EC03-1, KP03-3 and ST04-5, were subjected to DNA family shuffling using the single-stranded DNA shuffling method developed by Zhao and coworkers: Zha, W; Zhu, T; Zhao, H., Methods Mol. Biol. 2003, 231, 91-97. […] The dgoA gene hybrids from the five largest colonies that appeared after 2.5 days were sequenced and their encoding KDPGal aldolase activities toward DAHP formation were determined as shown in Table 9.

[3] = test system: chimeric KDPGal aldolase (DgoA) variant NR8.165-6 (family shuffling of EC03-1, KP03-3 and ST04-5), GST fusion protein; experiment: DAHP formation kinetics, family-shuffled variant NR8.165-6 (Table 10); format: biochemical, chimera of E. coli, K. pneumoniae and S. typhimurium
Method: as §1, §2

[4] = test system: chimeric KDPGal aldolase (DgoA) variant NR8.165-4 (family shuffling of EC03-1, KP03-3 and ST04-5), GST fusion protein; experiment: DAHP formation kinetics, family-shuffled variant NR8.165-4 (Table 10); format: biochemical, chimera of E. coli, K. pneumoniae and S. typhimurium
Method: as §1, §2

[5] = molecular target: S. typhimurium KDPGal aldolase (DgoA) variant ST04-5 (D20E, V28M, S42T, I89T, P150L, D178G; parent SEQ ID NO:6), GST fusion protein (Salmonella enterica, UniProt A0A0H3NU26, D178G/D20E/I89T/P150L/S42T/V28M); experiment: DAHP formation kinetics, evolved variant ST04-5 (Table 10); format: biochemical; settings: purified as GST fusion protein
Method: as §1, with “The reaction is initiated by addition of diluted cellular lysate to the assay solution, and the absorbance at 234 nm monitored continuously for 5 min.” left out

[6] = test system: E. coli native DAHP synthase AroH; settings: Akowski & Bauerle 1997, cited from earlier work
[7] = test system: E. coli native DAHP synthase AroG; settings: Sheflyan et al. 1998, cited from earlier work
[8] = test system: O=C[C@H](O)[C@H](O)COP(=O)(O)O; experiment: DAHP formation kinetics, wild-type K. pneumoniae KDPGal aldolase (Table 10); format: biochemical, Klebsiella pneumoniae; settings: other: purified as GST fusion protein; pH 7.5
Method: as §1

[9] = test system: O=C[C@H](O)[C@H](O)COP(=O)(O)O; experiment: DAHP formation kinetics, evolved variant ST04-5 (Table 10); format: biochemical, Salmonella typhimurium; settings: other: purified as GST fusion protein; pH 7.5
Method: as §1, with “The reaction is initiated by addition of diluted cellular lysate to the assay solution, and the absorbance at 234 nm monitored continuously for 5 min.” left out

[10] = test system: O=C[C@H](O)[C@H](O)COP(=O)(O)O; experiment: DAHP formation kinetics, wild-type S. typhimurium KDPGal aldolase (Table 10); format: biochemical, Salmonella typhimurium; settings: other: purified as GST fusion protein; pH 7.5
Method: as §1

[11] = substrate: O=C[C@H](O)[C@H](O)COP(=O)(O)O; experiment: DAHP formation kinetics, evolved variant EC03-1 (Table 10); format: biochemical, Escherichia coli; settings: other: purified as GST fusion protein; pH 7.5
Method: as §1, with “1 U of DHQ dehydratase and cellular lysate. The reaction is initiated by addition of diluted cellular lysate to the assay solution, and the absorbance at 234 nm monitored continuously for 5 min.” left out

[12] = substrate: O=C[C@H](O)[C@H](O)COP(=O)(O)O; experiment: DAHP formation kinetics, wild-type E. coli KDPGal aldolase (Table 10); format: biochemical, Escherichia coli; settings: other: purified as GST fusion protein; pH 7.5
Method: as §1, with “1 U of DHQ dehydratase and cellular lysate. The reaction is initiated by addition of diluted cellular lysate to the assay solution, and the absorbance at 234 nm monitored continuously for 5 min.” left out

[13] = read-out: Km for D-erythrose 4-phosphate
[14] = purified as GST fusion protein, read-out: Km (E4P)
[15] = relative to parent enzymes EC03-1 and ST04-5
[16] = compared with the wild-type E. coli KDPGal aldolase

Chain of S. typhimurium KDPGal aldolase (DgoA) variant ST04-5 (D20E, V28M, S42T, I89T, P150L, D178G; parent SEQ ID NO:6), GST fusion protein (A0A0H3NU26 whole entry D178G/D20E/I89T/P150L/S42T/V28M, the tested form may be a part): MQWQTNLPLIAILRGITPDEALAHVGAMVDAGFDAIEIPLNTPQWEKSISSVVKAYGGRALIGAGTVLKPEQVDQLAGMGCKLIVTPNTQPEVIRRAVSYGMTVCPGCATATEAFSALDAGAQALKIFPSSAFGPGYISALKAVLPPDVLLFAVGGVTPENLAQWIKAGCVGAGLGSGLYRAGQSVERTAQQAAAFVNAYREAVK

Molecule: O=C[C@H](O)[C@H](O)COP(=O)(O)O [E4P, D-erythrose 4-phosphate]
- kcat [1]: 29.5 s⁻¹
- Km [1, 13]: 81.4 µM
- kcat ([2]; purified as GST fusion protein): 2.51 s⁻¹
- kcat/Km ([2]; purified as GST fusion protein): 16000 M⁻¹ s⁻¹
- Km [2, 14]: 157 µM
- kcat/Km relative to parent enzymes [2, 15]: decrease in kcat/Km values relative to their parent enzymes
- kcat ([3]; purified as GST fusion protein): 0.504 s⁻¹
- kcat/Km ([3]; purified as GST fusion protein): 6300 M⁻¹ s⁻¹
- Km [3, 14]: 80 µM
- kcat/Km relative to parent enzymes [3, 15]: decrease in kcat/Km values relative to their parent enzymes
- increase in kcat [4, 16]: 5 fold
- increase in kcat/Km [4, 16]: 25 fold
- reduction in Km for D-erythrose 4-phosphate [4, 16]: 5 fold
- kcat ([4]; purified as GST fusion protein): 4.76 s⁻¹
- kcat/Km ([4]; purified as GST fusion protein): 41400 M⁻¹ s⁻¹
- Km [4, 14]: 115 µM
- kcat [5]: 3.24 s⁻¹
- kcat/Km [5]: 27200 M⁻¹ s⁻¹
- kcat [6]: 20.6 s⁻¹
- Km [6, 13]: 35 µM
- kcat [7]: 10.3 s⁻¹
- Km [7, 13]: 141 µM

Molecule: Klebsiella pneumoniae KDPGal aldolase (DgoA), wild type, SEQ ID NO:4, GST fusion protein (Klebsiella pneumoniae subsp. pneumoniae MGH 78578)
- Km [8]: 1507 µM

Molecule: S. typhimurium KDPGal aldolase (DgoA) variant ST04-5 (D20E, V28M, S42T, I89T, P150L, D178G; parent SEQ ID NO:6), GST fusion protein (Salmonella enterica subsp. enterica serovar Typhimurium str. SL1344; D178G/D20E/I89T/P150L/S42T/V28M)
- Km [9]: 119 µM

Molecule: Salmonella typhimurium KDPGal aldolase (DgoA), wild type, SEQ ID NO:6, GST fusion protein (Salmonella enterica subsp. enterica serovar Typhimurium str. SL1344)
- Km [10]: 685 µM

B1: E. coli KDPGal aldolase (DgoA) variant EC03-1 (F33I, D58N, Q72H, A75V, V85A, V154F; parent SEQ ID NO:2), GST fusion protein (Escherichia coli K-12; … (protein)
chain: MQWQTKLPLIAILRGITPDEALAHVGAVIDAGIDAVEIPLNSPQWEQSIPAIVDAYGNKALIGAGTVLKPEHVDVLARMGCQLIATPNIHSEVIRRAVGYGMTVCPGCATATEAFTALEAGAQALKIFPSSAFGPQYIKALKAVLPSDIAVFAFGGVTPENLAQWIDAGCAGAGLGSDLYRAGQSVERTAQQAAAFVKAYREAVQ
- Km [11]: 124 µM
- kcat [11]: 2.49 s⁻¹
- kcat/Km [11]: 20100 M⁻¹ s⁻¹

B2: Escherichia coli KDPGal aldolase (DgoA), wild type, SEQ ID NO:2, GST fusion protein (Escherichia coli K-12) (protein)
chain: B1 chain with I33F, N58D, H72Q, V75A, A85V, F154V
- Km [12]: 571 µM
- kcat [12]: 0.94 s⁻¹
- kcat/Km [12]: 1650 M⁻¹ s⁻¹
